Source: ChEMBL document CHEMBL4819103, “Discovery of selective fragment-sized immunoproteasome inhibitors” (Eur J Med Chem, 2021)
Each block holds one compound with its values, some of them ahead of it. Calls of active or inactive are those of the source. The calls are words filed in the database; no cut-off is given here.

Experiments:
[1] = Glutathione reactivity of compound at pH 8 measured by HPLC-MS assay; type: physicochemical
[2] = Glutathione reactivity of compound at pH 8.5 measured by HPLC-MS assay; type: physicochemical
[3] = target: T1, Proteasome Macropain subunit MB1 (Homo sapiens) (UniProt P28074); test: Inhibition of beta 5 chymotrypsin-like activity (unknown origin) at 100 uM using Suc-LLVY-AMC as substrate for 90 mins by fluorescence based assay; design: scale not given: the % may be the effect or the level left
T1 sequence (whole entry): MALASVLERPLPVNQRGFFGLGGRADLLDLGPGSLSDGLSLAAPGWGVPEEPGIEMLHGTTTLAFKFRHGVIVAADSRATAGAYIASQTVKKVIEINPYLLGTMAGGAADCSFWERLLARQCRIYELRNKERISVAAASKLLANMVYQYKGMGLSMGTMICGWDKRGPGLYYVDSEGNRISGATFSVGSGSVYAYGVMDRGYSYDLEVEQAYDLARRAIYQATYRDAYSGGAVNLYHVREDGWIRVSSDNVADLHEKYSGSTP

[4] = Glutathione reactivity of compound at pH 9 measured by HPLC-MS assay; type: physicochemical
[5] = Thiol reactivity of the compound assessed as TNB2-depletion at 200 uM measured upto 24 hrs by TNB2-depletion assay; type: physicochemical
[6] = Glutathione reactivity of compound at pH 7.5 measured by HPLC-MS assay; type: physicochemical
[7] = target: T2, Proteasome subunit beta type-8 (Homo sapiens) (UniProt P28062); test: Inhibition of human chymotrypsin-like beta 5i subunit of iCP assessed as residual activity using suc-LLVY-AMC as flurogenic substrate at 150 uM for 90 mins by fluorescence-based assay
T2 sequence (whole entry): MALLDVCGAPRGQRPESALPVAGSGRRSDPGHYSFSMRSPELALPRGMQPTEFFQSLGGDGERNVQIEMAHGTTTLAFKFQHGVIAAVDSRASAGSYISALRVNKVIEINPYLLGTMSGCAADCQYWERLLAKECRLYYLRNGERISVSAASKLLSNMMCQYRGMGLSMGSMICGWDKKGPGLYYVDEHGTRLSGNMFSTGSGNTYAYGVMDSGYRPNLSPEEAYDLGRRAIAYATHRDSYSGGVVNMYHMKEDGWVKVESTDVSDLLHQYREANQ

[8] = Solubility of the compound in DMSO; type: physicochemical
[9] = target: T2, Proteasome subunit beta type-8 (Homo sapiens); test: Inhibition of human chymotrypsin-like beta 5i subunit of iCP assessed as residual activity using suc-LLVY-AMC as flurogenic substrate at 100 uM for 90 mins by fluorescence-based assay
[10] = Solubility of the compound in buffer; type: physicochemical
[11] = target: T2, Proteasome subunit beta type-8 (Homo sapiens); test: Inhibition of human chymotrypsin-like beta 5i subunit of iCP assessed as cysteine-48 labelling by Ellman's method
[12] = target: T3, Proteasome Macropain subunit MB1 (Homo sapiens, UniProt P28074); test: Inhibition of beta 5 chymotrypsin-like activity (unknown origin) using Suc-LLVY-AMC as substrate for 90 mins by fluorescence based assay
T3 sequence (P28074 whole entry): T1 sequence (whole entry)

[13] = target: T4, Proteasome subunit beta type-8 (Homo sapiens, UniProt P28062); test: Inhibition of human chymotrypsin-like beta 5i subunit of iCP using suc-LLVY-AMC as flurogenic substrate for 90 mins by fluorescence-based assay
T4 sequence (P28062 whole entry): T2 sequence (whole entry)

[14] = species: Homo sapiens; test: Selectivity ratio of IC50 for human beta1i subunit of iCP Pto IC50 for human chymotrypsin-like beta 5i subunit of iCP
[15] = species: Homo sapiens; test: Selectivity ratio of IC50 for human beta2i subunit of iCP Pto IC50 for human chymotrypsin-like beta 5i subunit of iCP
[16] = species: Homo sapiens; test: Selectivity ratio of IC50 for human beta2 subunit of cCP Pto IC50 for human chymotrypsin-like beta 5i subunit of iCP

Drug metabolism [1]: Metabolite_Notdetected
Drug metabolism [2]: Metabolite_Notdetected
Activity [3]: 100%
Drug metabolism [4]: Metabolite_Notdetected
Drug metabolism [5]: Metabolite_Notdetected
Drug metabolism [6]: Metabolite_Notdetected
Activity [7]: 80%
SMILES: Cn1c(S)nc2cc(Cl)ccc21

solubility [8]: Insoluble
SMILES: Sc1nc2ccc(Cl)cc2s1

Activity [9]: 55%
solubility [10]: Insoluble
SMILES: Cc1ccc2nc(S)sc2c1

solubility [8]: Insoluble
SMILES: O=C(CCc1cccnc1)Nc1cccc2[nH]c(=S)oc12

Activity [9]: 39%
solubility [10]: Insoluble
SMILES: Cn1c(=S)[nH]c2ccc(NC(=O)c3ccccc3)cc21

inhibition [11]: Active
IC50 [12]: 45 µM
IC50 [13]: 9.1 µM
SMILES: N#Cc1nc2ccc(Cl)cc2o1

SMILES: O=S(=O)(F)c1nc2ccccc2s1
Ratio IC50 [14]: 7
Ratio IC50 [15]: 7
IC50 [12]: 81 µM
IC50 [13]: 11 µM
Ratio IC50 [16]: 7
